Results reported in patent US8293682B2, “Growth regulators for gramineous weeds” (Rikengreen Co., Ltd., priority 2008, dated 2012).

Tests used:
[1] = system: annual bluegrass (Poa annua L.); assay: Test Example 1: number of ear emergence, poly-cup, single or mixed application; format: in vivo
Protocol: At the initial stage of the ear emergence of annual bluegrass (Poa annua L.) grown in a poly-cup of 11 cm×11 cm, benzyladenine (Beanine for painting; made by Rikengreen; containing 1% benzyladenine) and ethephon (Ethrel 10 soluble concentrate; Nissan Chemical Industries; containing 10% ethephon) respectively as a single active ingredient or a mixture of them were diluted in a predetermined amount of water and applied by atomization so as to be a dose as indicated in Table. The application was carried out using 100 mL/m^2 of the solution to which a spreader (Riken Sprayzer (registered trade mark); made by Rikengreen) was added so as to be 1/1,000 fold. Inspection was made on Days 21, 32 and 45 after treatment with the agents to count the number of ear emergence in the cup. After completion of each inspection, clipping was performed.

lawn grasses = conditions: cited from earlier work
[2] = system: annual bluegrass (Poa annua L.); conditions: cited from earlier work

## c1ccc(CNc2ncnc3nc[nH]c23)cc1 [Benzyladenine, 6-benzylaminopurine]
[1]; 21 Days after Application, Benzyladenine 2, Ethephon 0 mg a.i./m^2
  number of ear emergence in the cup: 39
[1]; 21 Days after Application, Benzyladenine 4, Ethephon 0 mg a.i./m^2
  number of ear emergence in the cup: 26
[1]; 21 Days after Application, Benzyladenine 8, Ethephon 0 mg a.i./m^2
  number of ear emergence in the cup: 36
[1]; 21 Days after Application, Benzyladenine 12, Ethephon 0 mg a.i./m^2
  number of ear emergence in the cup: 16
[1]; 21 Days after Application, Benzyladenine 16, Ethephon 0 mg a.i./m^2
  number of ear emergence in the cup: 11
[1]; 32 Days after Application, Benzyladenine 2, Ethephon 0 mg a.i./m^2
  number of ear emergence in the cup: 50
[1]; 32 Days after Application, Benzyladenine 4, Ethephon 0 mg a.i./m^2
  number of ear emergence in the cup: 34
[1]; 32 Days after Application, Benzyladenine 8, Ethephon 0 mg a.i./m^2
  number of ear emergence in the cup: 10
[1]; 32 Days after Application, Benzyladenine 12, Ethephon 0 mg a.i./m^2
  number of ear emergence in the cup: 9
[1]; 32 Days after Application, Benzyladenine 16, Ethephon 0 mg a.i./m^2
  number of ear emergence in the cup: 6
[1]; 45 Days after Application, Benzyladenine 2, Ethephon 0 mg a.i./m^2
  number of ear emergence in the cup: 71
[1]; 45 Days after Application, Benzyladenine 4, Ethephon 0 mg a.i./m^2
  number of ear emergence in the cup: 71
[1]; 45 Days after Application, Benzyladenine 8, Ethephon 0 mg a.i./m^2
  number of ear emergence in the cup: 67
[1]; 45 Days after Application, Benzyladenine 12, Ethephon 0 mg a.i./m^2
  number of ear emergence in the cup: 55
[1]; 45 Days after Application, Benzyladenine 16, Ethephon 0 mg a.i./m^2
  number of ear emergence in the cup: 45
[1]; Test Example 1, Tables 1-3
  inhibition of ear emergence (summary in words): effective in inhibiting the ear emergence
Lawn grasses; Non-patent document 1
  rooting of lawn grasses: effect for accelerating the rooting of lawn grasses
Lawn grasses; Patent document 1
  growth of lawn grasses: effect for accelerating the growth of lawn grasses

## O=P(O)(O)CCCl [Ethephon, 2-chloroethylphosphonic acid]
[1]; 21 Days after Application, Benzyladenine 0, Ethephon 40 mg a.i./m^2
  number of ear emergence in the cup: 43
[1]; 21 Days after Application, Benzyladenine 0, Ethephon 80 mg a.i./m^2
  number of ear emergence in the cup: 47
[1]; 21 Days after Application, Benzyladenine 0, Ethephon 160 mg a.i./m^2
  number of ear emergence in the cup: 28
[1]; 21 Days after Application, Benzyladenine 0, Ethephon 240 mg a.i./m^2
  number of ear emergence in the cup: 29
[1]; 21 Days after Application, Benzyladenine 0, Ethephon 320 mg a.i./m^2
  number of ear emergence in the cup: 19
[1]; 32 Days after Application, Benzyladenine 0, Ethephon 40 mg a.i./m^2
  number of ear emergence in the cup: 38
[1]; 32 Days after Application, Benzyladenine 0, Ethephon 80 mg a.i./m^2
  number of ear emergence in the cup: 41
[1]; 32 Days after Application, Benzyladenine 0, Ethephon 160 mg a.i./m^2
  number of ear emergence in the cup: 32
[1]; 32 Days after Application, Benzyladenine 0, Ethephon 240 mg a.i./m^2
  number of ear emergence in the cup: 19
[1]; 32 Days after Application, Benzyladenine 0, Ethephon 320 mg a.i./m^2
  number of ear emergence in the cup: 15
[1]; 45 Days after Application, Benzyladenine 0, Ethephon 40 mg a.i./m^2
  number of ear emergence in the cup: 54
[1]; 45 Days after Application, Benzyladenine 0, Ethephon 80 mg a.i./m^2
  number of ear emergence in the cup: 51
[1]; 45 Days after Application, Benzyladenine 0, Ethephon 160 mg a.i./m^2
  number of ear emergence in the cup: 38
[1]; 45 Days after Application, Benzyladenine 0, Ethephon 240 mg a.i./m^2
  number of ear emergence in the cup: 39
[1]; 45 Days after Application, Benzyladenine 0, Ethephon 320 mg a.i./m^2
  number of ear emergence in the cup: 36
[2]; Non-patent document 3, dose of 3.2 kg/hectare
  growth of annual bluegrass growing among Kentucky bluegrass: slowed growth
[2]; Non-patent document 4, 3.8-7.6 kg/hectare
  ear emergence of annual bluegrass growing among bent grass: inhibits the ear emergence
Lawn grasses; Non-patent document 2
  extension of stolon and weight in lawn grasses: promotes the extension of stolon and increase of the weight in lawn grasses
